The target of this experiment is P. falciparum apicoplast DNA polymerase (Pf-apPOL) (Plasmodium falciparum, UniProt Q8ILY1). Kind of experiment: Fluorescence-based high-throughput DNA polymerase assay (molecular beacon), primary screen and dose-response.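 As to % inhibition ApPOL 90': test concentration in µM.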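 As to % inhibition apPOL 180': test concentration in µM.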 It counts as biochemical. In short, it runs like this:
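Single-point screening used 10 µM compound with 20 nM polymerase, 20 nM hairpin substrate and 6 µM dNTPs for 90 min at 25 °C. Confirmatory titrations (2.5–80 µM) followed fluorescence at three times, and IC50 was derived from a fit including a cooperativity term n.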

The mark [1] stands for this setting: supplemental file 2, sheet IC50 nontoxic compounds; Pf-apPOL.

By IC50 is commonly meant the concentration that inhibits the measured activity by half.

Chain of P. falciparum apicoplast DNA polymerase (Pf-apPOL) (Q8ILY1 entry or part of it): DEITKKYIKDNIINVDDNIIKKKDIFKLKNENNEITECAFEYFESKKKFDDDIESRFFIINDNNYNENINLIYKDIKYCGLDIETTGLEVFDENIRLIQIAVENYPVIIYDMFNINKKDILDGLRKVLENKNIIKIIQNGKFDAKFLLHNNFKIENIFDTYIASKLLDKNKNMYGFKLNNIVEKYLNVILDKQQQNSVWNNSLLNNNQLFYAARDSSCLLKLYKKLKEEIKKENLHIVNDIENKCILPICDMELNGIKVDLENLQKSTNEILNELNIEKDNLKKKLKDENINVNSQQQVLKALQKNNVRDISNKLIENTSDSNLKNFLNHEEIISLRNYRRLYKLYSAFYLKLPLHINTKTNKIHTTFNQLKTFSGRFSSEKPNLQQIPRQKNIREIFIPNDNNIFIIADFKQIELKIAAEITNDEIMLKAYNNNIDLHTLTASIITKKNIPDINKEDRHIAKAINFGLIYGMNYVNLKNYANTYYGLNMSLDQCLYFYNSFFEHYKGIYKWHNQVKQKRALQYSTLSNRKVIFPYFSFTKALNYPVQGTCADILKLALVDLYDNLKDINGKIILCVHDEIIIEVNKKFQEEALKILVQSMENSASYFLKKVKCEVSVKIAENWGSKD

With `COc1ccc(-c2c(C(F)(F)F)nn3c(=O)cc(-c4cccc([N+](=O)[O-])c4)[nH]c23)cc1` [Molecule 16, COc1ccc(cc1)c1c2[nH]c(cc(=O)n2nc1C(F)(F)F)c1cccc(c1)N(=O)=O], the “DNA Pol” value reads like this: ('DNA Pol' of the 186 hits list (primary screen result); unit not given; 90 min, 10 µM) 98; (primary screen value of the library well; unit not given; 90 min, 10 µM) 98. Moreover, the “% inhibition Apo pol 10'” value (DRC-1; 10'; concentration 2.5) is recorded as 21.756%; the “% inhibition Apo pol 10'” value (DRC-1; 10'; concentration 5) stood at 31.6281%; the “% inhibition Apo pol 10'” value (DRC-1; 10'; concentration 10) was 53.4209%; the “% inhibition Apo pol 10'” value (DRC-1; 10'; concentration 20) is listed as 92.9592%; the “% inhibition Apo pol 10'” value (DRC-1; 10'; concentration 40) is 96.2671%; the “% inhibition Apo pol 10'” value (DRC-1; 10'; concentration 80) is given as 97.8824%. The “% inhibition Apol 90'” value (DRC-1; 90'; concentration 2.5) worked out at 17.6214%; the “% inhibition Apol 90'” value (DRC-1; 90'; concentration 5) amounted to 24.4098%; the “% inhibition Apol 90'” value (DRC-1; 90'; concentration 10) amounted to 48.4616%; the “% inhibition Apol 90'” value (DRC-1; 90'; concentration 20) worked out at 90.3483%; the “% inhibition Apol 90'” value (DRC-1; 90'; concentration 40) is reported as 97.371%; the “% inhibition Apol 90'” value (DRC-1; 90'; concentration 80) was 97.5048%. In addition, the “% inhibition apPOL 180'” value runs as follows: (DRC-1; 180'; concentration 2.5) 12.6653%; (DRC-1; 180'; concentration 5) 14.5865%; (DRC-1; 180'; concentration 10) 38.3358%; (DRC-1; 180'; concentration 20) 87.8097%; (DRC-1; 180'; concentration 40) 96.7933%; (DRC-1; 180'; concentration 80) 96.9215%. In addition, the “% inhibition apPOL 180'” value is given as 65% (DRC-2, 180', concentration 20 (unit not given)); 75% (DRC-2, 180', concentration 40 (unit not given)); 9% (DRC-2; 180'; concentration 2.5); 7.4% (DRC-2; 180'; concentration 5); 23% (DRC-2; 180'; concentration 10); 65% (DRC-2; 180'; concentration 20). Besides, the “% inhibition apPOL 180'” value (DRC-2; 180'; concentration 40) was found to be 75% and the “% inhibition apPOL 180'” value (DRC-2; 180'; concentration 80) was 85%. The “% inhibition Apol 40'” value is, setting by setting: (DRC-2, 40', concentration 2.5 (unit not given)) 13%; (DRC-2, 40', concentration 40 (unit not given)) 75%; (DRC-2; 40'; concentration 2.5) 13%; (DRC-2; 40'; concentration 5) 16%; (DRC-2; 40'; concentration 10) 33%; (DRC-2; 40'; concentration 20) 68%. Also, the “% inhibition Apol 40'” value reads like this: (DRC-2; 40'; concentration 40) 75%; (DRC-2; 40'; concentration 80) 79%. Also, the “% inhibition ApPOL 90'” value reads like this: (DRC-2, 90', concentration 5 (unit not given)) 14%; (DRC-2; 90'; concentration 2.5) 13%; (DRC-2; 90'; concentration 2.5 (unit not given)) 13%; (DRC-2; 90'; concentration 5) 14%; (DRC-2; 90'; concentration 10) 31%; (DRC-2; 90'; concentration 20) 69%. Moreover, the “% inhibition ApPOL 90'” value is, setting by setting: (DRC-2; 90'; concentration 40) 77%; (DRC-2; 90'; concentration 80) 83%. Besides, the “% inhibition Apo pol 5'” value (DRC-2; 5'; concentration 2.5) is given as 10%; the “% inhibition Apo pol 5'” value (DRC-2; 5'; concentration 5) amounted to 14%; the “% inhibition Apo pol 5'” value (DRC-2; 5'; concentration 5 (unit not given)) came out at 14%; the “% inhibition Apo pol 5'” value (DRC-2; 5'; concentration 10) is on record as 28%; the “% inhibition Apo pol 5'” value (DRC-2; 5'; concentration 20) turned out to be 58%; the “% inhibition Apo pol 5'” value (DRC-2; 5'; concentration 40) was found to be 62%. Moreover, the “% inhibition Apo pol 5'” value is, setting by setting: (DRC-2; 5'; concentration 80) 65%; (DRC-2; 5'; concentration 80 (unit not given)) 65%.
Turning to `COc1ccc(-c2c(C(F)(F)F)nn3c(=O)cc(-c4cccc([N+](=O)[O-])c4)[nH]c23)cc1` [Molecule 16], under setting [1], the IC50 worked out at 9.3 µM.
The same measure, in the same setting: then `COc1ccc(-c2cc3nc4c(c(=O)n3[nH]2)CCN(C(=O)CCc2ccccc2)C4)cc1` [Molecule 17], with 7.1 µM.
On to `Cn1nc(C(=O)N2CCc3c(nc4cc(-c5ccccc5)[nH]n4c3=O)C2)c2ccccc21` [Molecule 18, O=c1c2CCN(Cc2nc2n1[nH]c(c2)c1ccccc1)C(=O)c1nn(c2c1cccc2)C], for which the “DNA Pol” value (186 hits, value of the hit list (primary screen); unit not given; 90 min, 10 µM) is listed as 46 and the “DNA Pol” value (primary screen value, 'DNA Pol' only; 90 min, 10 µM) is recorded as 46. In addition, the “% inhibition Apo pol 10'” value stood at 9% (DRC-1; 10'; concentration 2.5); 28% (DRC-1; 10'; concentration 5); 66% (DRC-1; 10'; concentration 10); 74% (DRC-1; 10'; concentration 20); 72% (DRC-1; 10'; concentration 40); 55% (DRC-1; 10'; concentration 80). For the same molecule, the “% inhibition Apo pol 10'” value (first dose-response; 10'; concentration 80) amounted to 55%. For the same molecule, the “% inhibition Apol 90'” value by setting is: (DRC-1; 90'; concentration 2.5) 1.64%; (DRC-1; 90'; concentration 5) 16%; (DRC-1; 90'; concentration 10) 49%; (DRC-1; 90'; concentration 20) 59%; (DRC-1; 90'; concentration 40) 58%; (DRC-1; 90'; concentration 80) 54%. The “% inhibition Apol 90'” value is given as 16% (first dose-response; 90'; concentration 5) and 54% (first dose-response; 90'; concentration 80). For the same molecule, the “% inhibition apPOL 180'” value is, setting by setting: (DRC-1; 180'; concentration 2.5) -3.8%; (DRC-1; 180'; concentration 5) 6%; (DRC-1; 180'; concentration 10) 33%; (DRC-1; 180'; concentration 20) 39%; (DRC-1; 180'; concentration 40) 34%; (DRC-1; 180'; concentration 80) 34%. In addition, the “% inhibition apPOL 180'” value reads like this: (DRC-2, 180', concentration 2.5) 0.809%; (DRC-2, 180', concentration 5) 16%; (DRC-2, 180', concentration 10) 29%; (DRC-2, 180', concentration 20) 45%; (DRC-2, 180', concentration 40) 45%; (DRC-2, 180', concentration 80) 37%. The “% inhibition apPOL 180'” value was determined as 16% (DRC-2; 180'; concentration 5); 45% (DRC-2; 180'; concentration 20); 45% (DRC-2; 180'; concentration 40); 39% (first dose-response; 180'; concentration 20); 34% (first dose-response; 180'; concentration 40); 34% (first dose-response; 180'; concentration 80). For the same molecule, the “% inhibition Apo pol 5'” value was 5.33% (DRC-2, 5', concentration 2.5); 20% (DRC-2, 5', concentration 5); 36% (DRC-2, 5', concentration 10); 45% (DRC-2, 5', concentration 20); 43% (DRC-2, 5', concentration 40); 30% (DRC-2, 5', concentration 80). The “% inhibition Apo pol 5'” value (DRC-2; 5'; concentration 20) stood at 45%. In addition, the “% inhibition Apol 40'” value is 4% (DRC-2, 40', concentration 2.5); 23% (DRC-2, 40', concentration 5); 40% (DRC-2, 40', concentration 10); 54% (DRC-2, 40', concentration 20); 56% (DRC-2, 40', concentration 40); 47% (DRC-2, 40', concentration 80). For the same molecule, the “% inhibition Apol 40'” value by setting is: (DRC-2; 40'; concentration 5) 23%; (DRC-2; 40'; concentration 20) 54%. Moreover, the “% inhibition ApPOL 90'” value (DRC-2, 90', concentration 2.5) was 4.38%; the “% inhibition ApPOL 90'” value (DRC-2, 90', concentration 5) worked out at 23%; the “% inhibition ApPOL 90'” value (DRC-2, 90', concentration 10) amounted to 39%; the “% inhibition ApPOL 90'” value (DRC-2, 90', concentration 20) is 54%; the “% inhibition ApPOL 90'” value (DRC-2, 90', concentration 40) amounted to 55%; the “% inhibition ApPOL 90'” value (DRC-2, 90', concentration 80) is on record as 48%. The “% inhibition ApPOL 90'” value (DRC-2; 90'; concentration 5) is recorded as 23%, the “% inhibition ApPOL 90'” value (DRC-2; 90'; concentration 10) came to 39%, the “% inhibition ApPOL 90'” value (DRC-2; 90'; concentration 20) is on record as 54% and the “% inhibition ApPOL 90'” value (DRC-2; 90'; concentration 40) is recorded as 55%.
For `Cn1nc(C(=O)N2CCc3c(nc4cc(-c5ccccc5)[nH]n4c3=O)C2)c2ccccc21` [Molecule 18], the IC50 under setting [1] was 6.38 µM.

The values above are taken from publication PMC9090415, “Discovery of small molecule inhibitors of Plasmodium falciparum apicoplast DNA polymerase” (Journal of Enzyme Inhibition and Medicinal Chemistry, 2022).
